# Read-outs that look alike come from different tables or passages of the source.
# Key:
# [1] = system: alkaline phosphatase (ALP); assay: ALP expression staining in C2C12 cells; assay type: cell-based, mouse; conditions: for ALP expression by staining: C2C12, 2 days, 10 μM
# Procedure: C2C12 cells were treated for 2 days with 10 μM DIPQUO or structural analogs, 1 ng/ml rhBMP4, or with inhibitors as noted in figure legends, and then fixed briefly in 70% acetone/10% formaldehyde/20% citrate. Staining was achieved using the leukocyte alkaline phosphatase kit (Sigma 86R-1KT) according to the manufacturer's instructions. Expression of ALP was confirmed and quantified by flow cytometric analysis, using an Accuri C6 flow cytometer. Briefly, control- or DIPQUO-treated C2C12 cells were detached and harvested on day 2 using PBS-based enzyme-free cell detachment solution (ThermoFisher). 2×10^5 cells were incubated on ice for 30 minutes with 10 μl APC-conjugated ALPL antibody (R&D Systems), and washed in ice-cold PBS before analysis. Live cells were gated and analyzed in CFlow Plus software and then data was converted to FlowJo to achieve publication-level resolution. For siRNA experiments, gene-specific oligonucleotides were obtained for mouse p38-alpha (Cell Signaling) and p38-beta (Santa Cruz). Signal Silence scramble siRNA control oligonucleotide was purchased from Cell Signaling. C2C12 cells at 70% confluency were transfected in 12-well plates using Lipofectamine RNAiMax reagent (Invitrogen) according to manufacturer's instructions. Transfected cells were treated 24 hours later with DMSO or 10 μM DIPQUO, and siRNA transfection was repeated after 48 hours without changing culture media. After an additional 3 days, cells were either fixed and stained for ALP expression or analyzed for ALP activity using the AttoPhos Substrate kit. Hemagglutinin and FLAG epitope-tagged MKK3 (pMT2-HA-MKK3) and MKK6 (pcDNA3-FLAG-MKK6) constructs were obtained from Addgene and transfected into C2C12 cells using Lipofectamine LTX with Plus Reagent (ThermoFisher) according to manufacturer's instructions and cell extracts analyzed for protein expression and activity as described below.
# [2] = system: alkaline phosphatase (ALP); conditions: for RFU Score (10 μM): 154-analog library, C2C12, duplicate; for RFU Score Threshold ≥ 800 / Fluorescence Z Score Threshold ≥ 10: primary screen, C2C12, 4 days; for RFU Score (10 μM) / RFU Score Threshold ≥ 800 / Fluorescence Z Score Threshold ≥ 10: 10 μM; for RFU Score Threshold ≥ 800: Ex 450/Em 580 nm, rank in brackets not taken; for Fluorescence Z Score Threshold ≥ 10: Z score on DMSO control wells
# From the text: (§1) To identify small-molecule activators of osteoblast differentiation, we measured ALP activity using a fluorescent emission assay as a reporter for enzymatic digestion of ALP substrate in lysates derived from C2C12 myoblasts. […] Therefore, before screening, the assay was calibrated using recombinant human BMP4 protein as a positive control. Compounds were robotically deposited onto 384-well plates and then overlaid by C2C12 cells for a 4-day culture period, followed by lysis and fluorescent substrate assays (FIG. 1A; Table 1). To ensure uniformity, C2C12 cells were maintained in normal culture medium containing 10% fetal bovine serum, and lysis and substrate addition achieved using a microplate multidrop device. The primary screen (Table 2) encompassed greater than 47,000 small molecules tested at a final concentration of 10 μM.
# (§2) For the primary screen, library compounds were distributed onto 384-well microplates (Greiner Bio-One 781091) at a final concentration of 10 μM in culture medium using a Perkin Elmer Janus automated workstation and WinPrep Version 4.8.3.315. Positive (rhBMP4, 1 ng/ml, R&D Systems) and negative controls (DMSO, 0.2%) were manually added to each plate by multichannel pipet. C2C12 cells were seeded onto compounds and controls at a density of 2000/well using a Thermo Multidrop Combi reagent dispenser and cultured for 4 days at 37° C., 5% CO2. Culture medium was aspirated using a BioTek EL406 plate washer and cells were lysed in RIPA buffer (Millipore 20-188) at ambient temperature for 10 minutes. 10 μl fluorescent alkaline phosphatase substrate (AttoPhos, Promega S1000) was added to lysates and incubated an additional 10 minutes before measuring the fluorescence (Excitation 450 nm/Emission 580 nm) on a BioTek Synergy Neo2 stacking microplate reader. Plates were processed and relative fluorescence raw values measured in stacks of 10-20. The data were processed using Collaborative Drug Discovery web-based software (CDD Vault) to determine Z score calculated on DMSO control wells and percent activation normalized against positive and negative controls (NPA). Cherry-picked hit candidates were re-tested in concentration response experiments, from which 4 candidates were chosen and purchased for further testing from either ChemBridge or Enamine, based on availability.
# (§3) We also purchased a library of 154 structural chemical analogs assembled by ChemBridge Corp. from available screening library compounds.
# [3] = system: alkaline phosphatase (ALP); assay: cells; conditions: Mus musculus; for activation at 10 µM: C2C12, 96 h
# From the text: as §1, §2, §3
# [4] = read-out: NPA Score Threshold ≥ 5.0 (normalized percent activation)
SMILES,RFU Score (10 μM) [2],activation at 10 µM [3],also measured
O=C(O)c1cc2cc(Cl)ccc2[nH]c1=O [BT345],,,ALP expression by staining [1]: inert
COC(=O)c1cc2cc(Cl)ccc2[nH]c1=O [BT344],,,"Fluo. Z Score ([2]; SAR of library and proprietary analogs, AttoPhos assay, C2C12): 0.61 ± 0.47; ALP expression by staining [1]: inert; EC50 ([3]; C2C12): 920 nM"
CN1CC2(CCN(C(=O)c3[nH]cnc3-c3ccccc3)C2)OC1=O (stereo not drawn) [RU-0253075],500,7.71%,
CC(C)c1nnc(CN2C[C@H]3CC=CC[C@H]3C2)o1 [RU-0223925],,,"RFU Score Threshold ≥ 800 [2]: 1120 (6); Fluorescence Z Score Threshold ≥ 10 [2]: 18.94 (8); activation at 10 µM [3, 4]: 11.2%"
CNC(=O)CC1C(=O)NCCN1Cc1cc2cc(C)cc(C)c2[nH]c1=O (stereo not drawn) [RU-0424520],532,8.81%,
O=C(c1[nH]cnc1-c1ccccc1)N1CCCC(c2ccn[nH]2)C1 (stereo not drawn) [RU-0424551],452,6%,
CN(C)C1=NC2(CCN(C(=O)c3[nH]cnc3-c3ccccc3)CC2)C(=O)N1 [RU-0424527],575,10.5%,
O=C(c1[nH]cnc1-c1ccccc1)N1C[C@H](O)[C@@H](N2CCOCC2)C1 [RU-0268325],339,2.04%,
CN1CCC(Cc2noc(-c3[nH]cnc3-c3ccccc3)n2)CC1 [RU-0249023],293,0.4%,
CNC(=O)[C@@H]1C[C@@H](N)CN1Cc1cc2cc(C)cc(C)c2[nH]c1=O [RU-0424537],513,8.16%,
Cc1cc(C)c2[nH]c(=O)c(CN3CC(c4ccccn4)C3)cc2c1 [RU-0424499],498,7.62%,
Cc1cc(C)c2[nH]c(=O)c(-c3nccn3C(C)Cn3nc(C)cc3C)cc2c1 (stereo not drawn) [RU-0424543],363,2.86%,
O=C(c1[nH]cnc1-c1ccccc1)N1CCN2C(=O)OCC2C1 (stereo not drawn) [RU-0424454],333,1.83%,
O=C1NCC2(CCCN(C(=O)c3[nH]cnc3-c3ccccc3)C2)O1 (stereo not drawn) [RU-0264094],583,10.6%,
O=C(c1[nH]cnc1-c1ccccc1)N1CCOC(C(F)(F)F)C1 (stereo not drawn) [RU-0424512],455,6.12%,
Cc1cc(C)c2[nH]c(=O)c(CN3C[C@H](O)C[C@H]3C(=O)O)cc2c1 [RU-0424501],487,7.25%,
Cc1cc(C)c2[nH]c(=O)c(CN3CCC(c4nncn4C)CC3)cc2c1 [RU-0424449],284,0.1%,
CN(C)C1CCN(C(=O)c2cccc(-c3[nH]cnc3-c3ccccc3)c2)C1 (stereo not drawn) [RU-0424477],469,6.59%,
COC(=O)[C@H]1C[C@@H](O)CCN1Cc1cc2cc(C)cc(C)c2[nH]c1=O [RU-0424558],399,4.15%,
Cc1cc(C)c2[nH]c(=O)c(CN3CCOC4(CNCCOC4)C3)cc2c1 (stereo not drawn) [RU-0267267],557,9.71%,

SMILES,RFU Score (10 μM) [2],activation at 10 µM [3],also measured
CC1(C2CCN(C(=O)c3[nH]cnc3-c3ccccc3)CC2)NC(=O)NC1=O (stereo not drawn) [RU-0424463],422,4.96%,
O=C(c1[nH]cnc1-c1ccccc1)N1CC[C@H](CO)[C@H](O)C1 [RU-0227868],505,7.88%,
O=C(c1[nH]cnc1-c1ccccc1)N1CCCC(Nc2ccc(F)cc2)C1 (stereo not drawn) [RU-0236307],473,6.76%,
O=C(c1[nH]cnc1-c1ccccc1)N1CCOC(c2ccc(Cl)cc2)C1 (stereo not drawn) [RU-0261164],544,9.24%,
Cc1cc(C)c2[nH]c(=O)c(CN(Cc3cccnc3)C3CC3)cc2c1 [RU-0424487],501,7.72%,
O=C(NC1CCN(c2ccc(F)cc2)CC1)N(CC1CCOC1)C1CC1 (stereo not drawn) [RU-0219256],,,"RFU Score Threshold ≥ 800 [2]: Below Threshold; Fluorescence Z Score Threshold ≥ 10 [2]: Below Threshold; activation at 10 µM [3, 4]: 5.69%"
C=CCc1cc(-c2[nH]cnc2-c2ccccc2)cc(OC)c1O [RU-0248392],423,4.98%,
Cc1ccccc1OCCCN(C)c1nc(-c2cccnc2)nc2c1CNC2 [RU-0231961],,,"RFU Score Threshold ≥ 800 [2]: Below Threshold; Fluorescence Z Score Threshold ≥ 10 [2]: Below Threshold; activation at 10 µM [3, 4]: 5.5%"
Cc1cc(C)n(CC(C)Nc2nc(-c3ccncc3)nc3c2CNC3)n1 (stereo not drawn) [RU-0236897],,,"RFU Score Threshold ≥ 800 [2]: Below Threshold; Fluorescence Z Score Threshold ≥ 10 [2]: Below Threshold; activation at 10 µM [3, 4]: 5.32%"
Cc1cc(C)c2[nH]c(=O)c(CN3[C@@H]4CC[C@H]3C[C@@H](O)C4)cc2c1 [RU-0424495],486,7.21%,
Cc1cc(C)c2[nH]c(=O)c(-c3nccn3Cc3ccco3)cc2c1 [RU-0424518],484,7.14%,
"c1ccc2c(-c3cnn4cc(-c5ccc(N6CCNCC6)cc5)cnc34)ccnc2c1 [LDN193189, reference compound]",,,"effect of inhibitor on BMP-driven ALP expression (staining) ([1]; C2C12, co-treatment with BMP): attenuated BMP activation of ALP expression"
Cc1cc(C)c2[nH]c(=O)c(CN3C[C@@H]4CCN(C)[C@@H]4C3)cc2c1 [RU-0424491],498,7.63%,
Cc1cc(C)c2[nH]c(=O)c(CN3CCC(Oc4ncccn4)CC3)cc2c1 [RU-0424456],310,0.99%,
Cc1cc(C)c2[nH]c(=O)c(CN(C)Cc3cnccn3)cc2c1 [RU-0424510],484,7.14%,
Cc1cc(C)c2[nH]c(=O)c(C3CC(=O)NCc4nc5ccccn5c43)cc2c1 (stereo not drawn) [RU-0424462],503,7.81%,
OCc1ccc(CN2CCCC(COc3ccccc3F)C2)o1 (stereo not drawn) [RU-0229103],,,"RFU Score Threshold ≥ 800 [2]: 1980 (2); Fluorescence Z Score Threshold ≥ 10 [2]: 46.85 (2); activation at 10 µM [3, 4]: 6.82%"
c1cc2c(cc1NC1CCCNC1)OCCO2 (stereo not drawn) [RU-0256394],,,"RFU Score Threshold ≥ 800 [2]: Below Threshold; Fluorescence Z Score Threshold ≥ 10 [2]: Below Threshold; activation at 10 µM [3, 4]: 5.87%"
"C[C@@H]1CN(Cc2ccc(F)cc2)[C@@H](C)CN1C(=O)c1cc2c(C(=O)C(=O)N(C)C)cn(C)c2cc1Cl [SCI0469, reference compound]",,,"effect of inhibitor on DIPQUO-driven ALP expression (staining) ([1]; C2C12, co-treatment with DIPQUO): attenuated ALP expression in DIPQUO-treated cells"
Cc1cc(C)c2[nH]c(=O)c(CN3CCC4(CCCNC4)C3)cc2c1 (stereo not drawn) [RU-0227342],591,11%,
